Data: US10167247B2, “Solid forms of treprostinil” (United Therapeutics Corporation, priority 2013, dated 2019)
Blank lines part the entries; values can stand above or below the compound they belong to.

Key:
Type in all cases: physicochemical
[1] = Environmental stress (temperature / relative humidity), solid form by XRPD
Protocol: The mesophase treprostinil of FIG. 31 are formed, from top to bottom, from the following solutions: (1) 0.40 water activity slurry with acetone 2 days; (2) DCM slurry 60 to 30° C.; (3) 0.80 water activity slurry with isopropanol 7 days; (4) 1-propanol/water 1:1 v/v slurry ambient temperature; (5) Form B+A+mesophase 50° C. 7 days, (6) Acetonitrile slurry ambient temperature; (7) Form A 50° C. 15 hours; (8) Methanol/ethyl acetate evaporation; (9) Toluene crash precipitation from methyl ethyl ketone.
Solids were stressed in glass vials under various drying and relative humidity (RH) environments for specified times, generally monitoring weight change during stressing. Drying was done via ambient, P2O5, vacuum (ambient and elevated temperatures), and convection oven experiments, for which the only drying condition listed in the tables is the oven temperature. Ambient experiments were conducted by leaving samples exposed in a laboratory fume hood. Specific RH values were achieved by placing the sample inside sealed chambers containing saturated salt solutions or into separate chambers containing P2O5 powder for 0% RH. The salt solutions were selected and prepared based an ASTM standard procedure. For vacuum experiments, vials were covered with nylon filters to prevent potential solid loss. For the elevated temperature experiments, temperature was measured by a NIST-traceable thermometer. […]

[2] = Dynamic vapor sorption (DVS); conditions: for DVS weight loss: 95 to 5% RH
Protocol: DVS data were collected on a VTI SGA-100 Vapor Sorption Analyzer. NaCl and PVP were used as calibration standards. Samples were not dried prior to analysis. Sorption and desorption data were collected over a range from 5 to 95% RH (or 55 to 95% RH for Form B) at 10% RH increments under a nitrogen purge. The equilibrium criterion used for analysis was less than 0.0100% weight change in 5 minutes with a maximum equilibration time of 3 hours. Data were not corrected for the initial moisture content of the samples.

[3] = TG-IR heating, post-TG-IR XRPD; conditions: heated 25-97° C.
Protocol: Thermogravimetric infrared (TG-IR) analysis was performed on a TA Instruments thermogravimetric (TG) analyzer model 2050 interfaced to a Magna-IR 560® Fourier transform infrared (IR) spectrophotometer (Thermo Nicolet) equipped with an Ever-Glo mid/far IR source, a potassium bromide (KBr) beamsplitter, and a mercury cadmium telluride (MCT-A) detector. The IR wavelength verification was performed using polystyrene, and the TG calibration standards were nickel and Alumel™. The sample was placed in a platinum sample pan, and the pan was inserted into the TG furnace. The TG instrument was started first, immediately followed by the FT-IR instrument. The TG instrument was operated under a flow of helium at 90 and 10 cc/min for the purge and balance, respectively. The furnace was heated under helium at a rate of 20° C./minute to a final temperature of 97° C. IR spectra were collected approximately every 16 seconds for approximately 13 minutes. Each IR spectrum represents 16 co-added scans collected at a spectral resolution of 4 cm^−1. Volatiles were identified from a search of the High Resolution Nicolet Vapor Phase spectral library (v. 1990-1994).

[4] = Stability tests of anhydrous treprostinil on standing
Protocol: An anhydrous form of treprostinil has been previously described, e.g., in J. Org. Chem. 2004, 69, 1890-1902. The anhydrous form is not stable at room temperature. […] A larger amount of dimers can form at higher temperatures. However, dimer formation is negligible at 5° C. Therefore, anhydrous treprostinil must be refrigerated for storage and transport. In the past, anhydrous treprostinil had to be refrigerated and shipped with ice packs to maintain low (2° C.-8° C.) temperatures.

Compound: CCCCC[C@H](O)CC[C@@H]1[C@H]2Cc3cccc(OCC(=O)O)c3C[C@H]2C[C@H]1O [Treprostinil monohydrate Form A, 2-((1R,2R,3aS,9aS)-2-hydroxy-1-((S)-3-hydroxyoctyl)-2,3,3a,4,9,9a-hexahydro-1H-cyclopenta[b]naphthalen-5-yloxy)acetic acid]
Solid form after stress (XRPD) ([1]; 50° C. 15 hours): mesophase | DVS weight gain ([2]; 5 to 95% RH): 0.7% weight gain 5 to 95% RH | DVS weight loss [2]: 0.6% weight loss 95 to 5% RH | Post-TG-IR XRPD (solid form after heating) [3]: mesophase

Compound: CCCCC[C@H](O)CC[C@@H]1[C@H]2Cc3cccc(OCC(=O)O)c3C[C@H]2C[C@H]1O [Treprostinil Form C, 2-((1R,2R,3aS,9aS)-2-hydroxy-1-((S)-3-hydroxyoctyl)-2,3,3a,4,9,9a-hexahydro-1H-cyclopenta[b]naphthalen-5-yloxy)acetic acid]
DVS weight gain ([2]; 5 to 75% RH): 0.2% weight gain 5 to 75% RH | DVS weight gain ([2]; 75 to 95% RH): 4.6% weight gain 75 to 95% RH | DVS weight loss [2]: 0.5% weight loss 95 to 5% RH | post-DVS XRPD (solid form after DVS) ([2]; after sorption/desorption cycle): B + A | DVS weight loss upon equilibration ([2]; equilibration at 5% RH): 0.1% weight loss upon equilibration at 5% RH

Compound: CCCCC[C@H](O)CC[C@@H]1[C@H]2Cc3cccc(OCC(=O)O)c3C[C@H]2C[C@H]1O [Treprostinil monohydrate Form B, 2-((1R,2R,3aS,9aS)-2-hydroxy-1-((S)-3-hydroxyoctyl)-2,3,3a,4,9,9a-hexahydro-1H-cyclopenta[b]naphthalen-5-yloxy)acetic acid]
DVS weight gain ([2]; 55 to 95% RH): 0.4% weight gain 55 to 95% RH | DVS weight loss [2]: 0.6% weight loss 95 to 5% RH | DVS weight gain upon equilibration ([2]; equilibration at 55% RH): 0.3% weight gain upon equilibration at 55% RH

The remaining lines, values ahead:

Solid form after stress (XRPD) ([1]; 97% RH 12 days): mesophase+weak Form B
Compound: CCCCC[C@H](O)CC[C@@H]1[C@H]2Cc3cccc(OCC(=O)O)c3C[C@H]2C[C@H]1O [Mesophase treprostinil, 2-((1R,2R,3aS,9aS)-2-hydroxy-1-((S)-3-hydroxyoctyl)-2,3,3a,4,9,9a-hexahydro-1H-cyclopenta[b]naphthalen-5-yloxy)acetic acid]

Dimer formation ([4]; 5° C.): negligible | Stability ([4]; 25° C., dimers formed upon standing): not stable
Compound: CCCCC[C@H](O)CC[C@@H]1[C@H]2Cc3cccc(OCC(=O)O)c3C[C@H]2C[C@H]1O [anhydrous treprostinil, 2-((1R,2R,3aS,9aS)-2-hydroxy-1-((S)-3-hydroxyoctyl)-2,3,3a,4,9,9a-hexahydro-1H-cyclopenta[b]naphthalen-5-yloxy)acetic acid]
